Test results as given in paper PMC3789947, “Mechanism for Recognition of an Unusual Mycobacterial Glycolipid by the Macrophage Receptor Mincle” (The Journal of Biological Chemistry, 2013).

Assays:
bovine mincle CRD [1] = target: T1, bovine mincle CRD (Bos taurus, UniProt E1BHM0, I174T); experiment: competition with […]-Man31-BSA on immobilized biotin-tagged CRD; format: binding; conditions: pH 7.8, 1.5 M NaCl, 2.5 mM CaCl2, 4 °C
T1 construct: gene CLEC4E; C-type carbohydrate recognition domain, residues 78-211
T1 sequence (E1BHM0 78-211 I174T): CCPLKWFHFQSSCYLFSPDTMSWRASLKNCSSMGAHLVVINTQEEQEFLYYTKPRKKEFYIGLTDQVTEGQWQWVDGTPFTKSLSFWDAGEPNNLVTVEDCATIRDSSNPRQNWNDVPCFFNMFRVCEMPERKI

bovine mincle CRD [2] = target: T1, bovine mincle CRD; experiment: as above; format: binding
[3] = reported as KI(trehalose)/KI(acyltrehalose) ratio

CCCC(=O)OC[C@H]1O[C@H](O[C@H]2O[C@H](CO)[C@@H](O)[C@H](O)[C@H]2O)[C@H](O)[C@@H](O)[C@@H]1O [mono-n-butanoyl derivative of trehalose]
KI (bovine mincle CRD [1]; [3]): the mono-n-butanoyl derivative showed enhanced affinity compared with trehalose

CO[C@H]1O[C@H](CO)[C@@H](O)[C@H](O)[C@H]1O [α-methyl glucoside]
KI (bovine mincle CRD [1]): The mean ratio of KI values for α-methyl glucoside and trehalose

CC(=O)OC[C@H]1O[C@H](O[C@H]2O[C@H](COC(C)=O)[C@@H](O)[C@H](O)[C@H]2O)[C@H](O)[C@@H](O)[C@@H]1O [trehalose acetylated at the two 6-OH groups]
KI (bovine mincle CRD [1]; [3]): acetylation at the two 6-OH groups is tolerated

CCCCCCCC(=O)OC[C@H]1O[C@H](O[C@H]2O[C@H](CO)[C@@H](O)[C@H](O)[C@H]2O)[C@H](O)[C@@H](O)[C@@H]1O [mono-octanoyl trehalose]
Ki (bovine mincle CRD [2]): 58 ± 8 µM
